Assay in all cases: NCI-60 cell line screen, 48 h
Experiment [1] deals with 786-0 renal.
For experiment [2], the system named is A498 renal.
Experiment [3] concerns HT29 colon.
Experiment [4] concerns MDA-MB-231 breast.
The test system of experiment [5] is NCI-H460 lung.
Experiment [6] concerns NCI-H522 lung.
Experiment [7] deals with RPMI-8226 leukemia.
Experiment [8] relates to SK-MEL-2 melanoma.
Experiment [9] concerns SK-MEL-5 melanoma.
For experiment [10], the system named is UACC-62 melanoma.

“And” between values parts separate entries of the source, which are not always exact repeats. Equal values may be shown once.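 Step 1: Grow cells in 96-well plates. Step 2: Expose to compound for 48 hours at 5 concentrations. Step 3: Interpolate endpoints linearly; if unreached, use highest concentration. The concentration for 50% growth inhibition is given as GI50. At the TGI there is no net growth.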 Some results are limits rather than exact numbers.

On to `Oc1ccc(Cl)cc1C=Nc1cnc2ccccc2c1`, for which the TGI in experiment [1] is more than 100 µM; in experiment [2], more than 100 µM; in experiment [3], more than 100 µM; in [4], more than 85.7 µM; in experiment [5], more than 100 µM; in [6] it was more than 100 µM. Also, the TGI in [7] is 85.6 µM; in experiment [8], more than 80.6 µM; in [9] it was more than 90 µM; in experiment [10], more than 100 µM.

`O=C1NC(=NCCc2ccc(Cl)cc2)S/C1=C\c1ccc2ncccc2c1`: the GI50 is 14.3 µM in experiment [1]; 13.8 µM in experiment [2]; more than 13 µM in experiment [3]; more than 25 µM in experiment [4]; 17.8 µM in [5]; 3.41 µM in experiment [6]. Moreover, the GI50 in experiment [7] was more than 23 µM; in experiment [8], 8.28 µM; in experiment [9], 15.8 µM; in experiment [10], 17.4 µM. Besides, the TGI in experiment [1] was more than 25 µM; in experiment [2], more than 25 µM; in [3] it was more than 25 µM; in [4], more than 25 µM; in experiment [5], more than 25 µM; in [6], more than 16 µM. For the same compound, the TGI in experiment [7], in experiment [8], in experiment [9] and in experiment [10] was more than 25 µM throughout.

As for `COC1=CC(=O)O/C1=C(\OC)C1OC1c1ccccc1` (stereo not given), the TGI in experiment [1], in experiment [2], in experiment [3], in experiment [4], in experiment [5] and in [6] was more than 100 µM in each case. The TGI in experiment [7], in experiment [8], in [9] and in [10] was more than 100 µM in each case.

Turning to `O=c1[nH]c(C2CCCN2)nc2c1oc1ccc(Cl)cc12` (stereo not given), the GI50 is more than 100 µM in experiment [1]; 1.77 µM in experiment [2]; more than 100 µM in [3]; more than 100 µM in experiment [4]; more than 100 µM in [5]; 26.9 µM in [6]. Also, the GI50 in experiment [7] was more than 100 µM; in experiment [8] it was more than 100 µM; in [9], 20.3 µM; in experiment [10], 98.8 µM. Moreover, the TGI in [1] was more than 100 µM; in [2] it was 25 µM; in [3], more than 100 µM; in [4], more than 100 µM; in [5], more than 100 µM; in experiment [6], more than 100 µM. Moreover, the TGI in [7] was more than 100 µM; in experiment [8], more than 100 µM; in experiment [9] it was more than 85 µM; in experiment [10], more than 100 µM.

As for `COc1ccc(-n2c(=S)sc3c(Cl)nc(C)nc32)c(OC)c1`, the GI50 is 4.42 µM in [1]; 11.5 µM in experiment [2]; 2.41 µM in [3]; 3.16 µM in [4]; 3.12 µM in experiment [5]; 1.84 µM in experiment [6]. Besides, the GI50 is 3.45 µM in [7], 2.04 µM in experiment [8] and 2.06 µM in experiment [10]. Besides, the TGI is 20.4 µM in [1]; 23.8 µM in experiment [2]; 6.28 µM in experiment [3]; 10.3 µM in experiment [4]; 9.04 µM in experiment [5]; 3.89 µM in experiment [6]. In addition, the TGI turned out to be 14 µM in [7], 3.97 µM in experiment [8] and 4.69 µM in [10].

On to `[N-]=[N+]=CC(=O)CCC(N)C(=O)O` (stereo not given), for which the GI50 is 7.17 µM in experiment [1]; 7.72 µM in [2]; 0.727 µM in experiment [3]; 2.93 µM in [5]; 0.963 µM in experiment [6]; 24.6 µM in experiment [8]. In addition, the GI50 in experiment [9] was 1.48 µM; in experiment [10], 3.82 µM. For the same compound, the TGI in experiment [1] is more than 250 µM; in experiment [2] it was more than 250 µM; in experiment [3] it was 75.7 µM; in experiment [4], more than 250 µM; in experiment [5], 147 µM; in experiment [6], more than 149 µM. The values for the TGI in experiment [8], in experiment [9] and in [10] were 245 µM, 105 µM and more than 147 µM, respectively.

In the case of `C=C(Br)CN=CN(C)C`, the TGI in experiment [1], in [2], in experiment [3], in experiment [4], in experiment [6] and in experiment [7] was more than 100 µM in each case. In addition, the TGI in experiment [8], in experiment [9] and in [10] was more than 100 µM in each case.

With `CCOC(=O)c1cc(-c2ccc(OC)cc2)c([N+](=O)[O-])[nH]1`, the TGI in experiment [1], in experiment [2], in experiment [3], in experiment [4], in [5] and in experiment [6] was more than 10 µM each time. The TGI in experiment [8], in experiment [9] and in [10] was more than 10 µM each time.

As for `C/C(=N/NC(=S)Nc1ccccc1)c1nc2ccc(Cl)cc2[nH]1`, the GI50 in experiment [1] was 0.0918 µM; in experiment [2] it was 0.0806 µM; in experiment [4] it was 0.205 µM; in [5], 0.0351 µM; in experiment [6], 0.194 µM; in experiment [7], 0.202 µM. Further, the values for the GI50 in experiment [8], in experiment [9] and in experiment [10] were 0.252 µM, 0.0989 µM and 0.126 µM, respectively. In addition, the TGI in [1] is 0.368 µM; in experiment [2], 0.708 µM; in experiment [4], 1.79 µM; in [5] it was 0.522 µM; in experiment [6], 0.821 µM; in experiment [7] it was 3.36 µM. For the same compound, the figures for the TGI in experiment [8], in [9] and in experiment [10] were 0.901 µM, 0.457 µM and 0.425 µM, respectively.

Take `Cn1c(COC(=O)NCCc2ccccn2)nc2c(N3CCOCC3)nc(Cl)nc21`: the GI50 in [1] was 1.34 µM; in experiment [2], 1.53 µM; in [3] it was 1.17 µM; in experiment [4] it was 1.62 µM; in [5] it was 1.62 µM; in experiment [6], 1.35 µM. Further, the GI50 was 1.88 µM in experiment [8], 1.74 µM in experiment [9] and 1.65 µM in experiment [10]. Also, the TGI came to 2.95 µM in [1]; 6.36 µM in [2]; 3.17 µM in experiment [3]; 3.63 µM in [4]; 3.63 µM in experiment [5]; 3.16 µM in experiment [6]. Further, the TGI worked out at 3.81 µM in experiment [8], 3.29 µM in experiment [9] and 3.29 µM in experiment [10].

For the compound `O=c1c(-c2ccc3c(c2)OCO3)coc2c3c(ccc12)OCO3`, the TGI in experiment [1] is 35.5 µM; in experiment [2] it was 83.1 µM; in experiment [4], 41 µM; in [5] it was 32.1 µM; in [6], 37.5 µM; in [7] it was more than 100 µM. Besides, the TGI in experiment [8], in [9] and in [10] was more than 100 µM each time.

`O=C(Nc1sc2c(c1C(=O)O)CCCC2)c1ccco1`: the GI50 in experiment [1] was more than 50 µM; in experiment [2], more than 50 µM; in [4] it was more than 50 µM; in [5], 23.5 µM; in experiment [6], more than 50 µM; in experiment [7], more than 50 µM. The GI50 in experiment [8], in experiment [9] and in [10] was more than 50 µM in each case. Moreover, the TGI in experiment [1], in experiment [2], in [4], in experiment [5], in experiment [6] and in [7] was more than 50 µM each time. In addition, the TGI in [8], in [9] and in experiment [10] was more than 50 µM each time.

For `CCCC(=O)O[C@]1(C)CC[C@@H]2[C@H]3[C@@H]1[C@@H]1C[C@@](C)(O)[C@H](OC)CC[C@](C)(OC(=O)[C@@H]2C)[C@H]3O1`, the GI50 in experiment [1] is more than 100 µM; in experiment [2] it was 35.4 µM; in [3], 26.9 µM; in [4] it was 28.9 µM; in experiment [5], 56.3 µM; in experiment [6] it was 32 µM. In addition, the GI50 in [7] was 13.8 µM; in [8] it was 65.7 µM; in experiment [9], 34.9 µM. Moreover, the TGI in experiment [1] is more than 100 µM; in experiment [2], more than 100 µM; in experiment [3] it was 69.7 µM; in experiment [4], 77.6 µM; in experiment [5], more than 100 µM; in experiment [6], more than 100 µM. The TGI in [7] was 26.8 µM; in experiment [8], more than 100 µM; in experiment [9], more than 100 µM.

In the case of `OCC(O)C(O)C(O)C(/C=N\Nc1ncnc2c(Br)cc(Br)cc12)=N/Nc1ncnc2c(Br)cc(Br)cc12` (stereo not given), the GI50 was 2.73 µM and 5.76 µM in experiment [1]; 22.5 µM and > 100 µM in experiment [2]; 10.1 µM and 3.6 µM in experiment [6]; 19.6 µM in [7]. The TGI in experiment [2] was 38.8 µM and > 100 µM; in [3], 42 µM and > 100 µM; in [4] it was 15.7 µM and > 100 µM; in experiment [6], 24.9 µM and > 100 µM; in experiment [7], more than 100 µM; in experiment [8], 17.6 µM and > 100 µM. In addition, in experiment [9], the TGI is 16.4 µM and 18.7 µM.

Values taken from PubChem BioAssay (NCI).
